Data published in patent US20250346943A1, “DEGRADER COMPOUNDS OF QSOX1 mRNA” (UNIVERSITY OF FLORIDA RESEARCH FOUNDATION, INCORPORATED, priority 2022, published 2025).
“Also recorded” adds a separate entry of the source.

Assays:
[1] = test system: wild type (WT) QSOX1 5′ UTR RNA hairpin; experiment: In vitro Chem-CLIP and competitive Chem-CLIP with Cy5-labeled WT RNA; type: binding, human
Experimental: In Vitro Chemical-Crosslinking and Isolation by Pull-down (Chem-CLIP) with Fluorescently Labeled RNA. Cy5-labeled RNA (100 μL, 2 μM) was folded by heating at 95° C. for 2 min in 1× Folding Buffer and cooled on ice. The RNA was then mixed with F1 at the indicated concentrations. The sample was irradiated with UV light (365 nm) for 15 min and then added to 100 μL of azide-disulfide agarose beads (Click Chemistry Tools, 1238-2) pre-washed with 200 μL of 25 mM HEPES, pH 7.0. A click reaction solution was prepared by mixing 30 μL of 250 mM sodium ascorbate, 30 μL of 10 mM CuSO4, and 30 μL of 50 mM THPTA, which was added to the sample. The sample was incubated while rotating at 37° C. for 2 h, briefly centrifuged, and then the supernatant was decanted. The beads were washed six times with 1× Washing Buffer (10 mM Tris-HCl, pH 7, 4 M NaCl, 1 mM EDTA, and 0.05% (v/v) Tween-20) following by incubation with 1× Releasing Buffer (50 mM TCEP and 100 mM K2CO3) at 37° C. for 30 min. An equivalent of iodoacetamide (200 mM) was added to the sample, which was incubated at 37° C. for an additional 30 min. The sample was briefly centrifuged and supernatant containing RNA was carefully transferred to a clean tube. Cy-5 fluorescence in the supernatant was measured with a Molecular Devices SpectraMax M5 plate reader with an excitation wavelength of 640 nm and an emission wavelength of 680 nm. For competitive Chem-CLIP, F1-RIBOTAC was added to the folded the RNA and incubated at room temperature for 15 min prior to the addition of F1. Pull-down was then completed as described above.

QSOX1-a protein = QSOX1-a protein abundance by Western blotting in MDA-MB-231 cells; type: cell-based, human; details: 10 μM
Experimental: Measuring Protein Abundance by Western Blotting. MDA-MB-231 cells were seeded in 6-well plates at ˜50% confluency and treated with vehicle (DMSO) or compound as described above but without EU treatment. After 16 h, the compound-containing growth medium was removed and replaced with fresh medium containing compound (re-dosing). After an additional 32 h incubation, total protein was harvested (48 h total treatment time). The cells were then washed twice with cold 1×DPBS, and total protein was harvested by using Mammalian Protein Extraction Reagent (M-PER, Thermo Scientific) per the manufacturer's protocol. Protein concentration was quantified by using BCA Protein Assay Kit (Pierce), and the proteins were separated by using 10% SDS-polyacrylamide gel (20 μg protein per lane). After gel electrophoresis in 1× Running Buffer (50 mM MOPS, 50 mM Tris-base, pH 7.5, 1 mM EDTA, and 0.1% (w/v) SDS) at 120 V for 1 h, the proteins were transferred to a PVDF membrane (0.45 μm, Cytiva) at 300 mA for 1 h in 1× Transfer Buffer (25 mM Bicine, 25 mM Tris-base, pH 7.5, 1:4 MeOH:H2O). The membrane was blocked with 5% (w/v) non-fat dry milk in TBST (1×TBS containing 0.1% (v/v) Tween-20) for 1 h at room temperature. The primary antibody for QSOX1 protein (Cat #10092-932, Proteintech) or SQSTM1 protein (Cat #ab 109012, Abcam) was incubated with 1:1000 dilutions at 4° C. for 16 h. The membrane was then washed by TBST four times (5 min each) and then incubated with the secondary antibody (Cat #7074S, Cell Signaling) with 1:5000 dilution at room temperature for 2 h. The membrane was washed with TBST four times (5 min each) and imaged by using a SuperSignal West Pico Chemiluminescent Substrate (Pierce) per manufacturer's protocol. The blot was stripped by washing the membrane in 1× Stripping Buffer (200 mM glycine, pH 2.2, 4 mM SDS, 1% (v/v) Tween 20) at room temperature for 30 min, followed by blocking again as described above. […] Expression levels of proteins were quantified based on band intensity by using ImageJ. […]

MDA-MB-231 cells = experiment: Invasion assay; type: cell-based, human; details: 10 μM, 48 h
Experimental: Invasion Assay. MDA-MB-231 cells were seeded in […] and treated with compound or transfected by ASO for 48 h as described in Cell Culture. After treatment for 48 h, the medium was replaced with fresh medium that contains same concentration of compound but lacking FBS for 8 h (serum starvation). ThinCert (GBO) 24-well inserts with 8 μm pores were coated with 100 μL of 0.5 mg/mL Matrigel (Fisher Scientific: CB40234) per well, and then cells were added into the insert (50,000 cells per well). Fresh growth medium with FBS was added to a 24-well plate (600 μL each well), and the inserts containing cells were placed on the top, allowing medium to cover the bottom of the insert. After 16 h, all medium was removed, and cells were washed by 1×DPBS twice. Cells were then fixed with 3% (w/v) paraformaldehyde (PFA) in 1×DPBS at room temperature for 30 min, followed by staining with Crystal Violet (10 mg/mL; 4:1H2O:MeOH) at room temperature for 20 min. A cotton swab was used to gently remove non-invasive cells on sitting on top of the Matrigel. The inserts were then imaged under a regular optical microscope (3 views per well), and the number of invasive cells were counted manually.

For `CCOC(=O)C1=C(Nc2ccccc2)S/C(=C\c2ccc(OCCOCCOCCOCCNC(=O)CCC(=O)N(C)[C@H]3CC[C@@H](c4ccc(Cl)c(Cl)c4)c4ccccc43)c(O)c2)C1=O` [Compound F1-RIBOTAC], which “competition of F1 cross-linking to the QSOX1-a target site (competitive Chem-CLIP)” value ([1]; constant concentration of F1, increasing competitor) is on record?
Its value is “dose-dependently competed off; also recorded: dose-dependently ablates”.

And the “reduction of QSOX1-a protein abundance” value (QSOX1-a protein)?
The value was ~35%.

What about the “reduction of the number of invasive MDA-MB-231 cells” value (MDA-MB-231 cells) of the same compound?
Its value is ~40%.

With `C#CCCC1(CCC(=O)N(C)[C@H]2CC[C@@H](c3ccc(Cl)c(Cl)c3)c3ccccc32)N=N1` [Compound F1] as the compound, how does the “cross-linking / pull-down of WT QSOX1-a 5′ UTR hairpin” value ([1]; in vitro Chem-CLIP) read?
The value was “selectively cross-linked; also recorded: significantly pulled down”.
